The nature of series [1]: Inhibition of MERS-CoV 3CLpro using SG-QXL520 as substrate preincubated with compound for 30 mins followed by susbtrate addition and measured after 30 mins by FRET assay. Further details: species or system Middle East respiratory syndrome-related coronavirus.
The next series has as its system SARS-CoV-2. As to the kind of experiment: Antiviral activity against SARS CoV-2 Wuhan-Hu-1 infected in HEK293T cells incubated for 24 hrs. It is filed as functional, organism-based. As to conditions: Severe acute respiratory syndrome coronavirus 2, Wuhan-Hu-1, HEK-293T.
Series [2] is described as follows: Cytotoxicity against cat CRFK cells incubated for 72 hrs by CytoTox 96 analysis. The format is toxicity, cell-based, Felis catus.
Series [3] addresses Replicase polyprotein 1ab (Severe acute respiratory syndrome coronavirus 2, UniProt P0DTD1). As to the kind of experiment: Inhibition of full length N-terminal his6-tagged SARS-CoV-2 3CL protease using FAM-SAVLQ as substrate preincubated with compound for 30 mins followed by substrate addition and measured after 30 mins by FRET assay.

On to `CC(C)C[C@H](NC(=O)OC[C@@H]1CCC(=O)N1Cc1cccc(Cl)c1)C(=O)N[C@@H](C[C@@H]1CCNC1=O)C(O)S(=O)(=O)O` (stereo partly drawn), for which the IC50 came out at 18 nM in series [1] and 100 nM in series [3]. Besides, in the series on SARS-CoV-2, the EC50 is 120 nM. In addition, the CC50 at 72 h in series [2] is above 50 µM.

In the case of `CC(C)C[C@H](NC(=O)OC[C@@H]1CCC(=O)N1Cc1cccc(C(F)(F)F)c1)C(=O)N[C@@H](C[C@@H]1CCNC1=O)C(O)S(=O)(=O)O` (stereo partly drawn), the IC50 in series [1] stood at 50 nM; in series [3] it was 770 nM. This compound also had an EC50 in the series with SARS-CoV-2 of 490 nM. Moreover, the CC50 at 72 h in series [2] is above 50 µM.

Regarding `CC(C)C[C@H](NC(=O)OC[C@@H]1CCC(=O)N1CC1CCCCC1)C(=O)N[C@@H](C[C@@H]1CCNC1=O)C(O)S(=O)(=O)O` (stereo partly drawn), the IC50 in series [1] came to 60 nM; in series [3], 280 nM. Also, it took 790 nM to reach a half-maximal effect in the series on SARS-CoV-2 (EC50). The same compound gave a CC50 at 72 h in series [2] above 50 µM.

For `CC(C)C[C@H](NC(=O)OC[C@@H]1CCC(=O)N1Cc1cccc(C(F)(F)F)c1)C(=O)N[C@H](C=O)C[C@@H]1CCNC1=O`, the IC50 in series [1] came to 50 nM; in series [3], 740 nM. Further, a half-maximal response in the series with SARS-CoV-2 (EC50) required 560 nM. The same compound showed a CC50 at 72 h in series [2] above 50 µM.

`CC(C)C[C@H](NC(=O)OC[C@@H]1CCC(=O)N1Cc1ccc2c(c1)OC(F)(F)O2)C(=O)N[C@@H](C[C@@H]1CCNC1=O)C(O)S(=O)(=O)O` (stereo partly drawn): the IC50 in series [1] was determined as 50 nM; in series [3] it was 320 nM. Further, in the series on SARS-CoV-2, the EC50 came to 450 nM. Further, in series [2], the CC50 at 72 h was above 50 µM.

Regarding `CC(C)C[C@H](NC(=O)OCC1CC(=O)N(CC2CC3C=CC2C3)C1)C(=O)N[C@H](C=O)C[C@@H]1CCNC1=O` (stereo partly drawn), the IC50 in series [1] was found to be 80 nM; in series [3], 190 nM. Further, it took 280 nM to reach a half-maximal effect in the series on SARS-CoV-2 (EC50). Further, the CC50 at 72 h in series [2] is above 50 µM.

On to `CC(C)C[C@H](NC(=O)OC[C@@H]1CCC(=O)N1Cc1cccc(F)c1)C(=O)N[C@H](C=O)C[C@@H]1CCNC1=O`, for which the IC50 amounted to 430 nM in series [1] and 110 nM in series [3]. The same compound had an EC50 in the series on SARS-CoV-2 of 50 nM. The compound further showed a CC50 at 72 h in series [2] above 50 µM.

For `CC(C)C[C@H](NC(=O)OC[C@@H]1CCC(=O)N1CC1CCCCC1)C(=O)N[C@H](C=O)C[C@@H]1CCNC1=O`, the figures for the IC50 in series [1] and in series [3] were 50 nM and 250 nM, respectively. The same compound showed an EC50 in the series on SARS-CoV-2 of 750 nM. The CC50 at 72 h in series [2] is above 50 µM.

As to `CC(C)C[C@H](NC(=O)OC[C@@H]1CCC(=O)N1Cc1cccc(F)c1)C(=O)N[C@@H](C[C@@H]1CCNC1=O)C(O)S(=O)(=O)O` (stereo partly drawn), the IC50 in series [1] was determined as 240 nM; in series [3], 160 nM. This compound also came in with an EC50 in the series on SARS-CoV-2 of 40 nM. Besides, in series [2], the CC50 at 72 h was above 50 µM.

With `CC(C)C[C@H](NC(=O)OCC1CC(=O)N(CC2CC3C=CC2C3)C1)C(=O)N[C@@H](C[C@@H]1CCNC1=O)C(O)S(=O)(=O)O` (stereo partly drawn), the IC50 was found to be 80 nM in series [1] and 190 nM in series [3]. Moreover, in the series on SARS-CoV-2, the EC50 was determined as 350 nM. In addition, in series [2], the CC50 at 72 h is above 50 µM.

In the case of `CC(C)C[C@H](NC(=O)OC[C@@H]1CCC(=O)N1Cc1ccc2c(c1)OC(F)(F)O2)C(=O)N[C@H](C=O)C[C@@H]1CCNC1=O`, the 50% inhibitory concentration (IC50) in series [1] was 50 nM; in series [3], 270 nM. This compound also gave an EC50 in the series on SARS-CoV-2 of 510 nM. The same compound displayed a CC50 at 72 h in series [2] above 50 µM.

Regarding `CC(C)C[C@H](NC(=O)OC[C@@H]1CCC(=O)N1Cc1cccc(Cl)c1)C(=O)N[C@H](C=O)C[C@@H]1CCNC1=O`, the IC50 in series [1] came to 17 nM; in series [3] it was 110 nM. Besides, the concentration for a half-maximal effect (EC50) with SARS-CoV-2 came out at 110 nM. Further, in series [2], the CC50 at 72 h was above 50 µM.

One may read the IC50 as the midpoint of a concentration-inhibition curve. By EC50 is commonly meant the concentration giving half of the maximal effect. In general, CC50 refers to the concentration at which the toxic effect on the cells reaches its halfway point.

For the origin of these results see ChEMBL document CHEMBL5523732, “Structure-Guided Design of Potent Coronavirus Inhibitors with a 2-Pyrrolidone Scaffold: Biochemical, Crystallographic, and Virological Studies” (J Med Chem, 2024).
